Patent US11351178B2, “Selective HDAC6 inhibitors” (ITALFARMACO S.P.A., priority 2017, dated 2022)
Like-named read-outs stand apart in the source and are kept apart here.

How the values were obtained:
HDAC1 = target: T1, HDAC1 (Homo sapiens, UniProt Q13547); assay: Enzymatic test HDAC1; assay type: biochemical; settings: Table 3
T1 construct: purchased BPS 50051

human PBMCs = assay: Mixed Lymphocytes Reaction (MLR) with human PBMCs (IFN-γ, TNF-α, IL-6); assay type: cell-based; settings: PBMC, 144 h, two-way MLR, 6 days, negative = induction; for inhibition at […]: 0.25 μM
Method: In order to study HDAC6 inhibitors ability to inhibit the activation of allogenic T CD4+ cells, a Mixed Lymphocytes Reaction (MLR or mixed lymphocyte culture, CLM) assay was performed. This is a reaction involving blast transformation of in vitro cultured lymphocytes in the presence of allogeneic lymphocytes. There is the so-called “two-way” reaction wherein the two lymphocyte populations stimulate each other to proliferate, and the so-called “one way” reaction, wherein the proliferation of one of the two populations is inhibited by mitomycin C or irradiation, these cells provide proliferation stimulus (stimulator) to the so-called “responder” cells.
Human peripheral blood mononuclear cells (PBMCs) used in MLR were obtained by Ficoll gradient separation from Buffy Coat of healthy donors.
We used a two-way MLR. The cells from the two donors were plated at 1:1 ratio (allogenic stimulation) to the final concentration of 2×10^5 per well in U-bottom 96 well plates in RPMI 1640 medium with 10% FBS and antibiotics. As a control we individually plated the cells from each donor (singenic stimulus). The experiment for each inhibitor was set in deduplicate for allogeneic stimuli and in quintuplicate for singenic stimuli. The cells were cultured for 6 days in an incubator at 37° C.
After 6 days the effect of the test compounds was evaluated by measuring the production of pro-inflammatory cytokines recognized to be characteristics of this assay.
For this purpose, the culture supernatant was harvested and used for IFN-γ, TNF-α and IL-6 inflammatory cytokine assay.
The JAK inhibitor ruxolitinib was used as the active reference compound in the test.
Values in the table indicate the inhibition percentages. Negative values indicate an induction.

[1] = system: regulatory T cell (Treg, CD4+CD25+) suppression activity; assay: T CD4 lymphocyte proliferation mediated by mouse regulatory T cells suppression assay; assay type: cell-based
Method: To evaluate the ability of the molecules under this patent to increase regulatory T cell (Treg, CD4^+CD25^+) suppression activity a T-cell (responder T cells, Teff) proliferation suppression assay was used. Treg cells at different concentrations were cultured with Teff cells (CD4^+CD25^−) in the presence of proliferative stimuli. T cells need of two stimuli to proliferate: the first given by the recognition of antigen associated with MHC by T cell receptor (TCR) and the second one derived from co-stimulatory molecules such as CD28. In the absence of a specific antigen, TCR activation can take place with an antibody recognizing one of the composing subunits, CD3ε. In this assay, anti-CD3ε monoclonal antibody and CD4 T cell depleted splenocytes were used as activator stimuli. Therefore, the ability to reduce Teff cells proliferation by Tregs in the presence or absence of HDAC6 inhibitors was assessed.
Treg and Teff cells were separated using the Treg isolation kit based on magnetic beads separation technique (Miltenyi Biotec) through an initial negative selection and a final positive selection process.
Single cell suspension was obtained from spleen of C57BL/6 mice using a 70 μm strainer.
Cell suspension was treated with ACK buffer to lyse red blood cells and then centrifuged for 5 minutes at 300×g. After centrifugation, the cells were resuspended in PBS (Phosphate Buffered Saline, Gibco) and counted. Subsequently, splenocytes were resuspended in a buffer consisting of PBS, 0.5% BSA and 2 mM EDTA.
To proceed with the first step of Treg separation, CD4 negative cells were indirectly magnetically labeled with a cocktail of biotin-conjugated antibodies against CD8a, CD11b, CD45R, CD49b, Ter-119 and Anti-Biotin MicroBeads CD4+ cells were thus obtained by negative selection as flow-through of a magnetic MACS column.
Cells bound to microbeads were eluted and conserved for their use as antigen presenting cells (APC) in the proliferation assay.
In the second step of Treg purification, pre-enriched CD4+ cells were labelled with an R-phycoerythrin (PE)-conjugated anti-CD25 antibody that preferentially binds to Treg cells and magnetic beads coupled with an anti PE antibody. The cell suspension was then loaded on a column. The Teff cells pass through the column without binding (negative selection), while beads-bound Treg cells adhere through the magnetic beads (positive selection). Treg cells were then eluted from the column by buffer flow using a plunger. Treg and Teff cell purification is summarized in FIG. 6. • CD4− cells from first positive selection as APC • Treg CD4+ CD25+ as suppressor cells • Teff CD4+ CD25− as responder/proliferating cells
CD4^− cells were treated with mitomycin C (50 μg/ml, Sigma) for 30 min at 37° C. to prevent their proliferation They were then resuspended at a concentration of 4.0×10^5/50 μl in complete medium (RPMI, FBS10%, penicillin/streptomycin 1×, 50 μM beta mercaptoethanol). Teffs were labeled with carboxy fluorescein succinimidyl ester (CFSE) at a concentration of 2 μM in PBS at 37° C., and after 10 minutes incubation, the reaction was blocked with a 10% FBS PBS solution. CFSE labelling allows covalent modification of Teff cell to analyse their proliferation by fluorescence dilution. The labelled Teffs were then centrifuged and resuspended at the final concentration of 5.0×10^4/50 μl in complete medium. Finally, the Tregs obtained by purification were diluted to the final concentration of 5.0×10^4/50 μl in complete medium.
Then a co-culture of Teff (5.0×10^4), T CD4^− (4.0×10^5) was prepared and Treg cells in different ratios (1:1, 1:2, 1:4, 1:8 ratio Teff to Treg cells) were added thereto. The test compounds at different concentrations or DMSO vehicle were added to the cell suspension. Finally, an anti-CD3ε monoclonal antibody (Miltenyi Biotec) was added at a concentration of 1 μg/ml. Cells were plated in flat bottom 96-well plates and each condition was set up in a technical duplicate. […]

[2] = read-out: MLR IFN-γ inhibition percentage
[3] = read-out: MLR IL-6 inhibition percentage
[4] = read-out: MLR TNF-α inhibition percentage

T1 sequence (Q13547 whole entry): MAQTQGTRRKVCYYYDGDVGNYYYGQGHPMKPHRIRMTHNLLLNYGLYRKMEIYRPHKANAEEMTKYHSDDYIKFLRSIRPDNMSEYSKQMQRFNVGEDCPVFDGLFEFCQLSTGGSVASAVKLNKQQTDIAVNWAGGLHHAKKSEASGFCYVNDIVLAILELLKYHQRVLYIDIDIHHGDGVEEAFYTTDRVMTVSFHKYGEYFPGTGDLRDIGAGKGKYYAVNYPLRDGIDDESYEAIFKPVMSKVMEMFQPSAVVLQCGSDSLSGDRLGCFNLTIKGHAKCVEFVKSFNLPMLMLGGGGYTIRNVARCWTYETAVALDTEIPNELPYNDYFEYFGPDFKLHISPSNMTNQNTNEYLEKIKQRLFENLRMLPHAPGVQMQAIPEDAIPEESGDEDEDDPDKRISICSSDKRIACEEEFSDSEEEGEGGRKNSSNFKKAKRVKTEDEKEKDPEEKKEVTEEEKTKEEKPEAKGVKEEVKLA

SMILES	IC50 (HDAC1) [nM]	inhibition at 1 µM (human PBMCs; [2]) [%]	inhibition at 1 µM (human PBMCs; [3]) [%]	inhibition at 1 µM (human PBMCs; [4]) [%]	also measured
COc1ccc(C(=O)N[C@@H](Cc2cscn2)c2nc(Cc3ccc(C(=O)NO)cc3)no2)cc1OC [comp. 1, (S)—N-(1-(3-(4-(hydroxycarbamoyl)benzyl)-1,2,4-oxadiazol-5-yl)-2-(thiazol-4-yl)ethyl)-3,4-dimethoxybenzamide]	1930				
O=C(NO)c1cc(F)c(Cn2nnc(-c3ccccn3)n2)c(F)c1 [comp. 6, 3,5-difluoro-N-hydroxy-4-((5-(pyridin-2-yl)-2H-tetrazol-2-yl)methyl)benzamide]	7510	-6.5	15.5	13.5	RS (relative T-reg suppression, AUC drug/AUC control) ([1]; concentration 1 μM): 1.7
O=C(NO)c1ccc(Cn2nnnc2-c2cccs2)cc1 [comp. 8, N-hydroxy-4-((5-(thiophen-2-yl)-1H-tetrazol-1-yl)methyl)benzamide]		15.7	-1.5	28.1	inhibition at […] (human PBMCs; [2]): 24.1%; inhibition at […] (human PBMCs; [3]): -33.1%; inhibition at […] (human PBMCs; [4]): 54.7%; inhibition at 0.5 µM (human PBMCs; [2]): 35.3%; inhibition at 0.5 µM (human PBMCs; [3]): -13%; inhibition at 0.5 µM (human PBMCs; [4]): 35.1%
Cn1c(Sc2ccc(C(=O)NO)cc2)nnc1-c1cccs1 [comp. 10, N-hydroxy-4-((4-methyl-5-(thiophen-2-yl)-4H-1,2,4-triazol-3-yl)thio)benzamide]	1020	25.6	20.6	49.4	
O=C(NO)c1cc(F)c(Cn2nnnc2-c2ccccn2)c(F)c1 [comp. 13, 3,5-difluoro-N-hydroxy-4-((5-(pyridin-2-yl)-1H-tetrazol-1-yl)methyl)benzamide]	2890	-10.9	38.3	37.2	RS (relative T-reg suppression, AUC drug/AUC control) ([1]; concentration 1 μM): 1.9
O=C(NO)c1cc(F)c(Cn2nnnc2-c2cccs2)c(F)c1 [comp. 15, 3,5-difluoro-N-hydroxy-4-((5-(thiophen-2-yl)-1H-tetrazol-1-yl)methyl)benzamide]	7090	21	22.9	33.9	RS (relative T-reg suppression, AUC drug/AUC control) ([1]; concentration 1 μM): 3.0
Cn1c(Sc2c(F)cc(C(=O)NO)cc2F)nnc1-c1cccs1 [comp. 17, 3,5-difluoro-N-hydroxy-4-((4-methyl-5-(thiophen-2-yl)-4H-1,2,4-triazol-3-yl)thio)benzamide]	3990	41.6	31.2	39.4	
O=C(NO)c1cc(F)c(Cn2nnc(-c3ccco3)n2)c(F)c1 [comp. 19, 3,5-difluoro-4-((5-(furan-2-yl)-2H-tetrazol-2-yl)methyl)-N-hydroxybenzamide]	2520	-7.85	4.62	25.9	RS (relative T-reg suppression, AUC drug/AUC control) ([1]; concentration 1 μM): 2.3
Nn1c(Sc2ccc(C(=O)NO)cc2)nnc1-c1ccc(OC(F)F)cc1 [comp. 28, 4-[[4-amino-5-[4-(difluoromethoxy)phenyl]-1,2,4-triazol-3-yl]sulfanyl]benzenecarbohydroxamic acid]	426				
CCN(CC)S(=O)(=O)c1cccc(-c2nnc(Sc3ccc(C(=O)NO)cc3)n2N)c1 [comp. 61, 4-[[4-amino-5-[3-(diethylsulfamoyl)phenyl]-1,2,4-triazol-3-yl]sulfanyl]benzenecarbohydroxamic acid]	495	16	-21		RS (relative T-reg suppression, AUC drug/AUC control) ([1]; concentration 1 μM): 1.1
CN(C)c1cccc(-c2nnc(Sc3c(F)cc(C(=O)NO)cc3F)n2C)c1 [comp. 80, 4-[[5-[3-(dimethylamino)phenyl]-4-methyl-1,2,4-triazol-3-yl]sulfanyl]-3,5-difluoro-benzenecarbohydroxamic acid]	4640				
Cn1c(Sc2c(F)cc(C(=O)NO)cc2F)nnc1C(c1ccccc1)c1ccccc1 [comp. 98, 4-[(5-benzhydryl-4-methyl-1,2,4-triazol-3-yl)sulfanyl]-3,5-difluoro-benzenecarbohydroxamic acid]	1010				

Second part, led by results:

IC50 (HDAC1) [nM]	SMILES	inhibition at 1 µM (human PBMCs; [2]) [%]	inhibition at 1 µM (human PBMCs; [3]) [%]	inhibition at 1 µM (human PBMCs; [4]) [%]	also measured
11600	Cn1c(Sc2c(F)cc(C(=O)NO)cc2F)nnc1-c1cccc2ccccc12 [comp. 2, 3,5-difluoro-N-hydroxy-4-((4-methyl-5-(naphthalen-1-yl)-4H-1,2,4-triazol-3-yl)thio)benzamide]				
616	O=C(NO)c1ccc(Cn2nnc(-c3ccc(C(F)(F)F)cc3)n2)cc1 [comp. 23, 4-[[5-[4-(trifluoromethyl)phenyl]tetrazol-2-yl]methyl]benzenecarbohydroxamic acid]				
232	O=C(NO)c1ccc(Cn2nnc(-c3ccccc3F)n2)cc1 [comp. 33, 4-[[5-(2-fluorophenyl)tetrazol-2-yl]methyl]benzenecarbohydroxamic acid]				RS (relative T-reg suppression, AUC drug/AUC control) ([1]; concentration 0.10 μM): 4.6
254	O=C(NO)c1ccc(Cn2nnc(-c3cccs3)n2)cc1 [comp. 50, 4-[[5-(2-thienyl)tetrazol-2-yl]methyl]benzenecarbohydroxamic acid]				
364	O=C(NO)c1ccc(Cc2nnc(-c3ccc(F)cc3F)o2)cc1 [comp. 58, 4-((5-(2,4-difluorophenyl)-1,3,4-oxadiazol-2-yl)methyl)-N-hydroxybenzamide]				
353	CN(C)S(=O)(=O)c1cccc(-c2nnn(Cc3ccc(C(=O)NO)cc3)n2)c1 [comp. 59, 4-[[5-[3-(dimethylsulfamoyl)phenyl]tetrazol-2-yl]methyl]benzenecarbohydroxamic acid]				RS (relative T-reg suppression, AUC drug/AUC control) ([1]; concentration 0.5 μM): 4.8
